Measurements from US20250090489A1, “CATIONIC POLYMERIC NANOCARRIERS INHIBIT CHEMOTHERAPY-INDUCED CANCER METASTASIS AND COGNITIVE IMPAIRMENT” (The Trustees of Columbia University in the City of New York, priority 2022, published 2025).

Legend:
[1] = Balb/c mice; compared to saline control
Description: In order to detect if mice experienced any behavioral changes under treatments, open field tests and pain sensitivity behavioral tests were performed.

[2] = system: MDA-MB-231 human breast tumor with lung metastasis; settings: NSG mouse
Excerpt: The anticancer efficacy of the nanoparticles has been evaluated in a NSG mouse model bearing MDA-MB-231 human breast tumor with lung metastasis. […] A thorough characterization of lung metastasis has been performed with a combination of IVIS imaging, H&E staining, and machine learning.

Question: With `COc1cccc2c1C(=O)c1c(O)c3c(c(O)c1C2=O)C[C@@](O)(C(=O)CO)C[C@@H]3O[C@H]1C[C@H](N)[C@H](O)[C@H](C)O1` [doxorubicin] as the compound, how does the “distance traveled in open field test” value [1] read?
Answer: The value was “significant attenuation in the distance”.

Question: Which lung metastasis ([2]; MDA-MB-231, IVIS imaging, H&E staining, machine learning) does the source give for `CC(=O)O[C@H]1C(=O)[C@@]2(C)[C@H]([C@H](OC(=O)c3ccccc3)[C@]3(O)C[C@H](OC(=O)[C@H](O)[C@@H](NC(=O)c4ccccc4)c4ccccc4)C(C)=C1C3(C)C)[C@]1(OC(C)=O)CO[C@@H]1C[C@@H]2O` [paclitaxel free drug, paclitaxel] here?
Answer: Its lung metastasis is “shows no therapeutic effect to metastasis, and even induce more metastasis”.

Question: What about the “primary tumor inhibition efficacy” value ([2]; MDA-MB-231 tumor) of the same compound?
Answer: Its value is “inhibits primary tumor”.
